US20100041089A1, “IMPROVED METHOD FOR DETECTING CHEMICAL […]” (priority 2006, published 2010)

Tested on: yeast genes (expressed mRNA)
Assay: DNA chip measurement of expressed mRNA of yeast genes after culture with a toxic chemical substance
Assay type: cell-based, Saccharomyces cerevisiae S288C
Outline: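 Each expression value is the mRNA level in chemical-treated yeast divided by that in untreated yeast, from Cy3/Cy5 fluorescence on a whole-genome chip. Log-phase S288C cells in YPD at 25° C had received a sublethal, growth-inhibiting dose for two hours. Intensity denotes control expression relative to the all-gene mean.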

Measured: The level of expressed mRNA in the presence of chemical substance/The level of expressed mRNA in the absence of chemical substance

O=[N+]([O-])c1cc[n+]([O-])c2ccccc12 [(5), 4-Nitroquinoline-N-oxide]
1.7: yeast gene YNL234W, cultured two hours with substance | yeast gene YNL281W, cultured two hours with substance | yeast gene YNR068C, cultured two hours with substance | yeast gene YOL117W, cultured two hours with substance
1.0: yeast gene YKL151C, cultured two hours with substance | yeast gene YKL153W, cultured two hours with substance | yeast gene YLR194C, cultured two hours with substance | yeast gene YMR180C, cultured two hours with substance | yeast gene YOL150C, cultured two hours with substance
1.5: yeast gene YMR191W, cultured two hours with substance | yeast gene YOL082W, cultured two hours with substance | yeast gene YOL131W, cultured two hours with substance | yeast gene YPL196W, cultured two hours with substance
0.9: yeast gene YMR095C, cultured two hours with substance | yeast gene YNL092W, cultured two hours with substance | yeast gene YOL071W, cultured two hours with substance | yeast gene YOL162W, cultured two hours with substance
2.1: yeast gene YNL217W, cultured two hours with the substance
1.9: yeast gene YKL195W, cultured two hours with substance | yeast gene YMR009W, cultured two hours with substance
0.6: yeast gene YOR197W, cultured two hours with substance | yeast gene YPL087W, cultured two hours with substance
1.4: yeast gene YMR295C, cultured two hours with substance | yeast gene YOL032W, cultured two hours with substance | yeast gene YOL047C, cultured two hours with substance | yeast gene YOL083W, cultured two hours with substance | yeast gene YOR019W, cultured two hours with substance
1.8: yeast gene YOR215C, cultured two hours with substance
1.3: yeast gene YLR054C, cultured two hours with substance | yeast gene YLR324W, cultured two hours with substance | yeast gene YLR387C, cultured two hours with substance | yeast gene YLR460C, cultured two hours with substance | yeast gene YNL074C, cultured two hours with substance | yeast gene YNL305C, cultured two hours with substance | yeast gene YPR151C, cultured two hours with substance
1.6: yeast gene YKR091W, cultured two hours with substance | yeast gene YNL156C, cultured two hours with substance
1.2: yeast gene YMR102C, cultured two hours with substance | yeast gene YNL044W, cultured two hours with substance | yeast gene YOL036W, cultured two hours with substance | yeast gene YPL222W, cultured two hours with substance
0.8: yeast gene YKL086W, cultured two hours with substance | yeast gene YLR149C, cultured two hours with substance | yeast gene YLR350W, cultured two hours with substance | yeast gene YML117W, cultured two hours with substance | yeast gene YMR184W, cultured two hours with substance | yeast gene YNL115C, cultured two hours with substance
2.8: yeast gene YKL139W
0.7: yeast gene YMR090W, cultured two hours with substance | yeast gene YMR097C, cultured two hours with substance | yeast gene YPL206C, cultured two hours with substance
2.5: yeast gene YLR388W
1.1: yeast gene YLR152C, cultured two hours with substance | yeast gene YMR067C, cultured two hours with substance | yeast gene YMR107W, cultured two hours with substance | yeast gene YMR316W, cultured two hours with substance | yeast gene YPR023C, cultured two hours with substance
2.2: yeast gene YML107C, cultured two hours with the substance
